This passage reports melting point results from patent publication US6455528B1, “Piperazine compounds and medicinal use thereof” (Mitsubishi Pharma Corporation, priority 1997, dated 2002).

Structures can show the parent of a compound that is named as a salt.

For the compound `CC(=O)NCc1ccc(C(C)N2CCN(c3ccccc3)CC2)cc1` (stereo not drawn) (as salt: hydrochloride), the melting point (usually the temperature of the solid-liquid transition) is 233 to 235 °C (dec.).

Consider `CC(=O)NCc1ccc(CN2CCN(c3ccc(F)cc3Br)CC2)cc1` (as salt: hydrochloride), for which the melting point lay in the range of 231 to 235 °C.

Compound `CC(=O)NCc1ccc(CN2CCN(c3ccc(F)cc3C)CC2)cc1` (as salt: hydrochloride) yielded a melting point of 115 to 117 °C.

With `CC(=O)NCc1ccc(C(C)(C)N2CCN(c3ccc(F)cc3)CC2)cc1` (as salt: hydrochloride) (hydrate or solvate), the melting point fell in the range of 179 to 181 °C.

In turn, `CC(=O)NC(C)c1ccc(CN2CCN(c3ccccc3)CC2)cc1` (stereo not drawn) (as salt: hydrochloride) (hydrate or solvate) [Example 58, N-(1-(4-((4-Phenylpiperazin-1-yl)methyl)phenyl)ethyl)acetamide Dihydrochloride 1/4 Hydrate] yielded a melting point of 196 to 200 °C.

As for `CC(=O)NCc1ccc(CN2CCN(c3ncccn3)CC2)cc1` (as salt: hydrochloride) (hydrate or solvate) [Example 73, N-(4-((4-(Pyrimidin-2-yl)piperazin-1-yl)methyl)phenylmethyl)acetamide Dihydrochloride Monohydrate], the melting point is 194 to 195 °C.

In the case of `CC(=O)NCc1ccc(CN2CCN(c3nccs3)CC2)cc1` (as salt: hydrochloride) (hydrate or solvate) [Example 81, N-(4-((4-(Thiazol-2-yl)piperazin-1-yl)methyl)phenylmethyl)acetamide Hydrochloride 1/2 Hydrate], the melting point was 120 to 121 °C.

In the case of `COc1ccccc1N1CCN(C(C)c2ccc(CNC(C)=O)cc2)CC1` (stereo not drawn) (as salt: hydrochloride) [Example 19, N-(4-(1-(4-(2-Methoxyphenyl)piperazin-1-yl)ethyl)phenylmethyl)acetamide Dihydrochloride], the melting point was 220 to 223 °C (dec.).

`CC(=O)NCc1ccc(CN2CCN(c3ccc(O)cc3)CC2)cc1` (as salt: hydrochloride) [Example 36, N-(4-((4-(4-Hydroxyphenyl)piperazin-1-yl)methyl)phenylmethyl)acetamide Dihydrochloride] gave a melting point of 218 to 220 °C.

`NCc1ccc(CN2CCN(c3ccccc3)CC2)cc1` [Example 2, 4-((4-(Aminomethyl)phenyl)methyl)-1-phenylpiperazine] showed a melting point of 68 to 70 °C.

`O=CNCc1ccc(CN2CCN(c3ccccc3)CC2)cc1` [Example 3, N-(4-((4-Phenylpiperazin-1-yl)methyl)phenylmethyl)formamide] returned a melting point of 108 to 109 °C.

On to `CCC(=O)NCc1ccc(CN2CCN(c3ccccc3)CC2)cc1` [Example 4, N-(4-((4-Phenylpiperazin-1-yl)methyl)phenylmethyl)propionamide], for which the melting point was 140 to 141 °C.

Take `CC(=O)NCc1ccc(CN2CCN(c3ccc(F)cc3)CC2)cc1` [Example 5, N-(4-((4-(4-fluorophenyl)piperazin-1-yl)methyl)phenylmethyl)acetamide]: the melting point fell in the range of 164 to 166 °C.

In turn, `CC(=O)NCc1ccc(CN2CCN(c3cccc(C)c3)CC2)cc1` [Example 9, N-(4-((4-(3-Methylphenyl)piperazin-1-yl)methyl)phenylmethyl)acetamide] showed a melting point of 80 to 81 °C.

`CC(=O)NCc1ccc(CN2CCN(c3ccc(Cl)cc3)CC2)cc1` [Example 11, N-(4-((4-(4-Chlorophenyl)piperazin-1-yl)methyl)phenylmethyl)acetamide] showed a melting point of 180.5 to 182 °C.

The compound `COc1ccc(N2CCN(Cc3ccc(CNC(C)=O)cc3)CC2)cc1` [Example 13, N-(4-((4-(4-Methoxyphenyl)piperazin-1-yl)methyl)phenylmethyl)acetamide] returned a melting point of 137 to 138 °C.

As for `CC(=O)NCCc1ccc(CN2CCN(c3ccccc3)CC2)cc1` [Example 14, N-(2-(4-((4-Phenylpiperazin-1-yl)methyl)phenyl)ethyl)acetamide], the melting point lay within 117 to 118 °C.

`CC(=O)NCc1c(C)cc(CN2CCN(c3ccc(F)cc3)CC2)cc1C` [Example 18, N-(4-(4-(4-Fluorophenyl)piperazin-1-ylmethyl)-2,6-dimethylphenylmethyl)acetamide] yielded a melting point of 163 to 164 °C.

As for `CC(=O)NCc1ccc(CN2CCN(c3ccccc3)CC2)cc1[N+](=O)[O-]` [Example 21, N-(2-Nitro-4-((4-phenylpiperazin-1-yl)methyl)phenylmethyl)acetamide], the melting point lay within 135 to 136 °C.

For `CC(=O)NCc1ccc(CN2CCN(c3ccccc3)CC2)cc1N` [Example 22, N-(2-Amino-4-((4-phenylpiperazin-1-yl)methyl)phenylmethyl)acetamide], the melting point fell in the range of 148 to 149 °C.

Turning to `CC(=O)NCc1ccc(CN2CCN(c3ccc(F)cc3)CC2)cc1[N+](=O)[O-]` [Example 23, N-(4-((4-(4-Fluorophenyl)piperazin-1-yl)methyl)-2-nitrophenylmethyl)acetamide], the melting point fell in the range of 112 to 114 °C.

Turning to `CC(=O)NCc1ccc(CN2CCN(c3ccc(F)cc3)CC2)cc1N` [Example 24, N-(2-Amino-4-((4-(4-fluorophenyl)piperazin-1-yl)methyl)phenylmethyl)acetamide], the melting point fell in the range of 163 to 164 °C.

On to `CC(=O)NCc1ccc(CN2CCN(c3ccc(F)cc3)CC2)cc1Cl` [Example 26, N-(2-Chloro-4-((4-(4-fluorophenyl)-piperazin-1-yl)methyl)phenylmethyl)acetamide], for which the melting point was 141 to 142 °C.

Take `CC(=O)NCCc1ccc(CN2CCN(c3ccc(F)cc3)CC2)cc1` [Example 27, N-(2-(4-((4-(4-Fluorophenyl)piperazin-1-yl)methyl)phenyl)ethyl)acetamide]: the melting point fell in the range of 121 to 123 °C.

In turn, `CC(=O)NCc1ccc(CN2CCN(c3ccc([N+](=O)[O-])cc3)CC2)cc1` [Example 33, N-(4-((4-(4-Nitrophenyl)piperazin-1-yl)methyl)phenylmethyl)acetamide] yielded a melting point of 151.5 to 153.5 °C.

For the compound `CC(=O)NCc1ccc(CN2CCN(c3ccc(NC(C)=O)cc3)CC2)cc1` [Example 35, N-(4-((4-(4-Acetamidophenyl)piperazin-1-yl)methyl)phenylmethyl)acetamide], the melting point was in the range of 225 to 226 °C.

Compound `CC(=O)NCc1ccc(CN2CCN(c3ccc(F)cc3[N+](=O)[O-])CC2)cc1` [Example 37, N-(4-((4-(4-Fluoro-2-nitrophenyl)-piperazin-1-yl)methyl)phenylmethyl)acetamide] showed a melting point of 94.5 to 96 °C.

Regarding `CC(=O)NCc1ccc(CN2CCN(c3ccc(F)cc3N)CC2)cc1` [Example 38, N-(4-((4-(2-Amino-4-fluorophenyl)piperazin-1-yl)methyl)phenylmethyl)acetamide], the melting point was in the range of 139 to 140 °C.

In turn, `CC(=O)NCc1ccc(CN2CCN(c3ccc(F)cc3NC(C)=O)CC2)cc1` [Example 39, N-(4-((4-(2-Acetylamino-4-fluorophenyl)piperazin-1-yl)methyl)phenylmethyl)acetamide] gave a melting point of 148 to 149.5 °C.

`CCOc1cc(F)ccc1N1CCN(Cc2ccc(CNC(C)=O)cc2)CC1` [Example 41, N-(4-((4-(2-Ethoxy-4-fluorophenyl)-piperazin-1-yl)methyl)phenylmethyl)acetamide]: the melting point fell in the range of 108 to 109 °C.
